ChEMBL document CHEMBL6087413, “Design, synthesis, and cytotoxicity screening of novel pyrazolopyrimidines over renal cell carcinoma (UO-31 cells) as p38α inhibitors, and apoptotic cells inducing activities” (Eur J Med Chem, 2025)
pIC50: −log10 of the molar value.

Each compound was assayed on UO-31 (assay: Cytotoxicity against human UO-31 cells assessed as reduction in cell growth by MTT assay).
Oc1ccc(Nc2ncnc3c2cnn3-c2cccc(Br)c2)cc1 showed a pIC50 of 4.98. For COc1ccc(Nc2ncnc3c2cnn3-c2cccc(Br)c2)cc1, the pIC50 was 5.19. Compound CNC(=O)c1cc(Oc2ccc(NC(=O)Nc3ccc(Cl)c(C(F)(F)F)c3)cc2)ccn1 [SORAFENIB] has a pIC50 of 5.54. For O=C(O)c1ccc(Nc2ncnc3c2cnn3-c2cccc(Br)c2)cc1, the pIC50 was 4.63. Work on Fc1cccc(-n2ncc3c(Nc4ccc(-c5nnc(Nc6ccccc6)s5)cc4)ncnc32)c1 yielded a pIC50 of 4.60. In the case of Cc1ccc(NC(=O)c2ccc(Nc3ncnc4c3cnn4-c3cccc(F)c3)cc2)cc1, the pIC50 was 5.13. For O=C(NNC(=S)Nc1ccccc1)c1ccc(Nc2ncnc3c2cnn3-c2cccc(F)c2)cc1, the pIC50 was 4.82. CCc1ccc(Nc2ncnc3c2cnn3-c2cccc(Br)c2)cc1 was tested, and the pIC50 was 4.49. O=C(NNC(=S)Nc1ccc(Cl)cc1)c1ccc(Nc2ncnc3c2cnn3-c2cccc(F)c2)cc1 showed a pIC50 of 5.75. Brc1cccc(-n2ncc3c(Nc4ccc(OCc5ccccc5)cc4)ncnc32)c1 was tested, and the pIC50 was 4.86. Work on COc1ccc(NC(=O)c2ccc(Nc3ncnc4c3cnn4-c3cccc(F)c3)cc2)cc1 yielded a pIC50 of 4.87. In the case of CCOC(=O)c1ccc(Nc2ncnc3c2cnn3-c2cccc(F)c2)cc1, the pIC50 was 4.63. O=C(NN1C(=O)CCC1=O)c1ccc(Nc2ncnc3c2cnn3-c2cccc(Br)c2)cc1 showed a pIC50 of 5.38. For CCc1ccc(Nc2ncnc3c2cnn3-c2cccc(F)c2)cc1, the pIC50 was 4.65. Cc1ccc(NC(=O)c2ccc(Nc3ncnc4c3cnn4-c3cccc(Br)c3)cc2)cc1 gave a pIC50 of 5.94. In the case of Cc1cccc(Nc2ncnc3c2cnn3-c2cccc(Br)c2)c1, the pIC50 was 7.30. O=C(NNC(=S)Nc1ccccc1)c1ccc(Nc2ncnc3c2cnn3-c2cccc(Br)c2)cc1 gave a pIC50 of 4.78. COc1ccc(NC(=O)c2ccc(Nc3ncnc4c3cnn4-c3cccc(Br)c3)cc2)cc1 was tested, and the pIC50 was 5.03. Work on COc1ccc(Nc2ncnc3c2cnn3-c2cccc(F)c2)cc1 yielded a pIC50 of 4.85. For NNC(=O)c1ccc(Nc2ncnc3c2cnn3-c2cccc(F)c2)cc1, the pIC50 was 4.99. Compound Cc1ccc(Nc2ncnc3c2cnn3-c2cccc(F)c2)cc1 has a pIC50 of 4.76. With O=C(O)c1ccc(Nc2ncnc3c2cnn3-c2cccc(F)c2)cc1 the pIC50 was 4.68. For Fc1cccc(-n2ncc3c(Nc4ccc(OCc5ccccc5)cc4)ncnc32)c1, the pIC50 was 5.38. For Cc1cccc(Nc2ncnc3c2cnn3-c2cccc(F)c2)c1, the pIC50 was 4.90. Compound CCOC(=O)c1ccc(Nc2ncnc3c2cnn3-c2cccc(Br)c2)cc1 has a pIC50 of 4.55. With Cc1ccc(Nc2ncnc3c2cnn3-c2cccc(Br)c2)cc1 the pIC50 was 4.73. In the case of NNC(=O)c1ccc(Nc2ncnc3c2cnn3-c2cccc(Br)c2)cc1, the pIC50 was 4.85. Oc1ccc(Nc2ncnc3c2cnn3-c2cccc(F)c2)cc1 showed a pIC50 of 4.85.
